Assay results published in patent US20090074886A1, “GSK-3 INHIBITORS” (Novartis Vaccines and Diagnostics Inc., priority 2003, published 2009).

Experiments:
[1] = test system: ST2 cells; experiment: Osteogenesis of multipotential ST2 cells, Alizarin Red-S staining for mineralization; type: cell-based; conditions: 3 μM on days 0 and 2 vs DMSO control; Alizarin Red-S stain on day 10; FIG. 1B
Description: FIG. 1B. Multipotential ST2 cells were induced to undergo osteogenesis as described (Hankenson and Bornstein 2002). On days 0 and 2, cells were treated with DMSO (control) or 3 μM CHIR99021 6-[(2-{[4-(2,4-dichlorophenyl)-5-(4-methylimidazol-2-yl)pyrimidin-2-yl]amino}ethyl)amino]pyridine-3-carbonitrile (Chiron Corporation, Emeryville, Calif.). On day 10, cells were stained with Alizarin Red-S for mineralization.

[2] = test system: 3T3-L1 preadipocyes; conditions: cited from earlier work

## Cc1c[nH]c(-c2cnc(NCCNc3ccc(C#N)cn3)nc2-c2ccc(Cl)cc2Cl)n1 [CHIR99021, 6-[(2-{[4-(2,4-dichlorophenyl)-5-(4-methylimidazol-2-yl)pyrimidin-2-yl]amino}ethyl)amino]pyridine-3-carbonitrile]
[1]
  osteoblastogenesis and mineralization of bipotential ST2 cells: increases osteoblastogenesis and mineralization
[2]
  Wnt signaling in vitro: mimic Wnt signaling
[2]; in vitro
  adipocyte conversion: blocking adipocyte conversion
